Data taken from article PMC7481357, “N-terminal Myristoylation Enhanced the Antimicrobial Activity of Antimicrobial Peptide PMAP-36PW” (Frontiers in Cellular and Infection Microbiology, 2020).
Residues, ends and D or L forms follow the SMILES beside them. *: point of attachment. Myristoyl = CCCCCCCCCCCCCC(=O)*

How the values were obtained:
[1] = tested on: S. aureus ATCC 25923 and P. aeruginosa GIM 1.551; assay: Thermal stability testing (boiling, then inhibition zone assay); type: cell-based, Staphylococcus aureus; Pseudomonas aeruginosa; conditions: boiled 120 min, 10 μg peptide, n = 5
Description: For thermal stability analysis, the Myr-36PW and peptides were boiled for 10, 20, 30, 40, 50, 60, 90, and 120 min as reported (Ebbensgaard et al., [2015]) with unboiled peptides as controls. Inhibition zone assay was performed against S. aureus ATCC 25923 and P. aeruginosa GIM 1.551. The inhibition zone diameters of peptides (10 μg, 1 μg/μL) were measured after incubation for 18 h at 37°C, and the inhibition curve was drawn.
Figure 3 Thermal stability determination of Myr-36PW by boiling. Thermal stability test of Myr-36PW and its analogs by boiling in different times (0, 10, 20, 30, 40, 50, 60, 90, and 120 min) via disk diffusion method. (A) (S. aureus ATCC 25923) and (B) (P. aeruginosa GIM 1.551) show the thermal stability curves of PMAP-36, PMAP-36PW, and Myr-36PW. The diameter of the standard disk is 6 mm. Data represent the mean ± SD (n = 5).

[2] = tested on: S. aureus ATCC 25923, S. typhimurium SL 1344, and P. aeruginosa GIM 1.551; assay: Biofilm inhibition assay (crystal violet); type: cell-based; conditions: 0.25–128 μg/mL, 24 h at 37°C, crystal violet OD 620 nm; n = 5
Description: The biofilm-inhibiting ability of Myr-36PW was evaluated against S. aureus ATCC 25923, S. typhimurium SL 1344, and P. aeruginosa GIM 1.551 by using crystal violet dye (Chen et al., [2018]; de Breij et al., [2018]). Overnight cultured strains in TSB medium were diluted to 1 × 10^6 CFU/mL, 100 μL of bacterial suspension with 100 μL of different concentration of peptides (0.25–128 μg/mL) was added into a 96-well plate. Bacterial suspension without peptides was used the negative control. After incubation for 24 h at 37°C, the supernatant weas discarded, and the biofilm was gently washed with PBS, fixed in methanol for 20 min, stained with 0.1% (w/v) crystal violet for 10 min, and finally removed. After washing with PBS, 95% ethanol was added into wells, and the optical density (OD) was measured at 620 nm.
(§1) Figure 6 Biofilm inhibition and eradication of Myr-36PW. (A–C) Inhibition of biofilm formation by Myr-36PW. (D) Eradication of preformed biofilm by Myr-36PW. (E) Killing effect of Myr-36PW against biofilm bacteria. Inhibition rate % = [1 – OD620 nm(peptides)/OD620 nm(bacteria)] × 100%. Biofilm mass % = OD620 nm(peptides)/OD620 nm(control) × 100%. The control group was bacterial culture without peptides. Data represent the mean ± SD (n = 5).

S. typhimurium SL 1344 = assay: Inhibition zone assay (disk diffusion); type: cell-based, Salmonella typhimurium; set-up: key: +, means the peptide has antibacterial activity; conditions: disk 10 μg peptide, 18 h at 37°C, * P < 0.05, ** P < 0.01 vs PMAP-36PW
Description: The inhibition zone assay was performed through the disk diffusion to evaluate the antimicrobial activity of Myr-36PW in vitro (Dunne et al., [2017]). The four above-mentioned bacterial strains were used as experimental strains, with L. monocytogenes CICC 21634 cultured in BHI medium, and P. aeruginosa GIM 1.551 cultured in TSB medium. The bacterial cells were cultured for 12 h at 37°C in the appropriate medium, and the bacterial cell suspension was spread on LB agar. The disks containing 10 μg of peptides (1 μg/μL) were attached to the solid medium and incubated at 37°C for 18 h. Finally the diameter of the inhibition zone was measured.

[3] = tested on: S. aureus ATCC 25923 and P. aeruginosa GIM 1.551; assay: pH stability testing (pH 2-13, then inhibition zone assay); type: cell-based, Staphylococcus aureus; Pseudomonas aeruginosa; conditions: for pH range of stable antimicrobial activity: peptides treated at pH 2–13, inhibition zone, 10 μg, n = 5
Description: For stability test, the Myr-36PW and peptides were treated with pH 2–13, and PBS buffer with different pH values was used as a control (Wang et al., [2019]). Inhibition zone assay was performed against S. aureus ATCC 25923 and P. aeruginosa GIM 1.551. The inhibition zone diameters of peptides (10 μg, 1 μg/μL) were measured after incubation for 18 h at 37°C, and the inhibition curve was drawn.
Figure 4 PH stability determination of Myr-36PW. PH stability test was performed using Myr-36PW and its analogs treated with different pH levels (2–13) through disk diffusion method. (A) (S. aureus ATCC 25923) and (B) (P. aeruginosa GIM 1.551) show the pH stability curve of PMAP-36, PMAP-36PW, and Myr-36PW. The diameter of the standard disk is 6 mm. Data represent the mean ± SD (n = 5).

[4] = tested on: S. aureus ATCC 25923, S. typhimurium SL 1344, and P. aeruginosa GIM 1.551; assay: Biofilm eradication assay (crystal violet and colony count); type: cell-based; conditions: 128 μg/mL, n = 5
Description: The biofilm-eradicating ability of Myr-36PW was determined against S. aureus ATCC 25923, S. typhimurium SL 1344, and P. aeruginosa GIM 1.551 (Chen et al., [2018]; de Breij et al., [2018]). In brief, 200 μL of bacterial dilution (1 × 10^6 CFU/mL) was added into a 96-well plate and incubated for 24 h at 37°C to form a biofilm, which was washed three times with PBS. Subsequently, 200 μL of peptides at 128 μg/mL were added to the wells. After incubation for 1 h at 37°C, the OD of each well was measured at 620 nm by crystal violet staining. The wells were gently washed three times with PBS after 1 h incubation to evaluate the killing effect of Myr-36PW against bacteria in the biofilm. Afterward, 100 μL of suspension was serially diluted and spread on LB agar plates, and bacterial colony was measured.
as §1

## CCCCCCCCCCCCCC(=O)NCC(=O)NCC(=O)N[C@@H](CCCNC(=N)N)C(=O)N[C@@H](Cc1ccccc1)C(=O)N[C@@H](CCCNC(=N)N)C(=O)N[C@@H](CCCNC(=N)N)C(=O)N[C@@H](CC(C)C)C(=O)N[C@@H](CCCNC(=N)N)C(=O)N[C@@H](CCCCN)C(=O)N[C@@H](CCCCN)C(=O)N[C@H](C(=O)N[C@@H](CCCNC(=N)N)C(=O)N[C@@H](CCCCN)C(=O)N[C@@H](CCCNC(=N)N)C(=O)N[C@@H](CC(C)C)C(=O)N[C@@H](CCCCN)C(=O)N[C@@H](CCCCN)C(=O)N[C@H](C(=O)NCC(=O)N[C@@H](CCCCN)C(=O)N[C@H](C(=O)N[C@@H](CC(C)C)C(=O)N[C@@H](CCCCN)C(=O)N[C@@H](Cc1c[nH]c2ccccc12)C(=O)N[C@H](C(=O)N[C@@H](Cc1c[nH]c2ccccc12)C(=O)N[C@@H](Cc1c[nH]c2ccccc12)C(=O)N[C@H](C(=O)N[C@H](C(=O)NCC(=O)N[C@@H](CO)C(=O)N[C@H](C(=O)N1CCC[C@H]1C(=O)N[C@@H](CC(C)C)C(=O)NCC(=O)N[C@@H](CS)C(=O)NCC(=O)O)[C@@H](C)CC)C(C)C)[C@@H](C)CC)[C@@H](C)CC)C(C)C)[C@@H](C)CC)[C@@H](C)O [Myr-36PW] (Myristoyl-GGRFRRLRKKTRKRLKKIGKVLKWIWWIVGSIPLGCG-OH; C-terminus assumed)
[1]
  Antimicrobial activity after boiling (thermal stability): retaining high bacterial inhibition
[2]
  Inhibition of biofilm formation: biofilm inhibition against the tested bacteria in a concentration-dependent manner
S. typhimurium SL 1344
  In vitro antibacterial activity (disk diffusion): +*
[3]; against P. aeruginosa GIM 1.551
  pH range of stable antimicrobial activity: 5–11 pH
[3]; against S. aureus ATCC 25923
  pH range of stable antimicrobial activity: 5–9 pH
[3]; inhibition zone, 10 μg peptide
  Antimicrobial activity at pH 2: higher than that of PMAP-36PW
  Antimicrobial activity at pH 13: disappeared
[4]; 1 h at 37°C on 24 h biofilm, crystal violet OD 620 nm
  Eradication of preformed biofilm: only eradicated the preformed biofilm in Gram-negative bacteria
[4]; 1 h at 37°C, colony count
  Killing effect against biofilm bacteria: bacterial killing effect except against S. aureus ATCC 25923
